From US20220096650A1 (Glaxosmithkline Intellectual Property Development Limited, priority 2019, published 2022) come the findings set out here.

What all share (assay type): cell-based, human
Assay [1] has as its system CD4 and CD8 cells in PBMC. The experiment in a line: IFNγ and IL-4 production by T cells upon anti-CD3/anti-CD28 stimulation in PBMC. To be noted: 48 and 72 hours. As for the experimental part:
This study was repeated two times (n=2) with blood from two different donors. 100 μL PBMCs (1×10^6 cells/mL) in RPMI-1640 with 10% FBS were added into anti-CD3 antibody coated wells with or without soluble 0.5 μg/mL anti-CD28 antibody. […] Three technical replicates were included for each assay condition. At the end of the study, cells were transferred, washed, stained and analyzed by flow cytometry as described in section 3.1. For intracellular staining, cells were fixed by cytofix buffer (BD Biosciences, Catalog #554655) at room temperature for 20 minutes and permeablized by perm/wash buffer (BD Biosciences, catalog #554723) at room temperature for 30 minutes before staining with antibodies or isotype controls.
The raw percentage and MFI data for each marker at each concentration of BCMA ADC was compared to the corresponding IgG control in the statistical analysis. To account for the variability of the different blood donors, a linear mixed effect model was used to analyze the data. […]
For data reporting, the average percentage or average MFI value among three technical replicates was generated at each BCMA ADC concentration and the % difference values were calculated as: % difference=(Avg 916−Avg IgG)*100/Avg IgG, where Avg 916 and Avg IgG represent the average values of the BCMA ADC treatment group and the IgG control group, respectively. […]

The subject of assay [2] is Dendritic cells co-cultured with BCMA ADC treated NCI-H929 cells. The experiment in a line: IL-10 and IL-12p70 in co-culture supernatants (MSD kits). Here is the method:
Day 7 iDCs were co-cultured with J6M0 ADC enhanced antigen binding protein treated NCI-H929 cells at 1:1 ratio for 24 hours on 96 well plates. All cells were counted at the initiation of the co-culture and diluted with X-Vivo-15 media to a concentration of 7.5×10^5 cells/mL. 7.5×10^4 cells/well (100 μl) each of iDCS and pre-treated NCI-H929 cells were combined in each well on a 96 well plate. Co-cultured cells were incubated 37° C./5% CO2 for 24 hours. A flow cytometry panel consisting of CD1a, CD11c, CD40, CD80, CD83, CD86, HLA-DR, & CD14 was used to assess fresh, FcR blocked Dendritic Cell differentiation and maturation on the FACS Canto II. […]
Data analysis was performed in Flow Jo v7.6.5 for the flow cytometry panel and used either CD11c+ or HLA-DR+ cell gating to distinguish the dendritic Cells from the tumor cells. […] Data for the secreted IL-10 and IL-12p70 from supernatants in the co-culture assays w analyzed in MSD Discovery Workbench v4.0.12.
FIGS. 3A and 3B: IL-10 decreased in the supernatants from co-cultured Dendritic cells from two healthy human donors and BCMA ADC treated NCI-H929 Multiple Myeloma cells. IL-10 was measured in (a) untreated (no BCMA ADC) Dendritic cells alone and (b-f) Dendritic cells that were co-cultured with (b) untreated (no BCMA ADC), (c) IgG Control (10 μg/mL), (d) 0.1, (e) 1 and (f) 10 μg/mL BCMA ADC treated (48 hours) NCI-H929 cells. […]

Assay [3] deals with CD4+ and CD8+ T cells. As to the kind of experiment: T cell proliferation upon anti-CD3/anti-CD28 stimulation (CFSE). To be noted: 96 hours; 3 donors. Here is the method:
Fresh normal peripheral blood isolated CD4+ or CD8+ T cells were received and counted using a Beckman Coulter ViCell then centrifuged at 330 g for 7 minutes. Cells were then stained with Molecular Probes Cell Trace CFSE (cat #C34554) proliferation dye (5-10 μM) in PBS/0.5% BSA. Cells were incubated for 5 minutes on ice prior to a further incubation for 5 minutes on ice in cold RPMI 1640/10% FBS. Any free dye was removed by two further cell centrifugations at 300 g for 5 minutes. Cells were resuspended in complete media RPMI 1640/10% FBS/IL-2 (2.8 ng/mL). Cells were then seeded (10^5 cells/100 μL volume/well) in a 96 well tissue culture plates pre-coated with anti-CD3 (1 μg/mL) and anti-CD28 (1 μg/mL). […] After the 4 day incubation, cell supernatant was harvested and frozen at minus 80° C. and the cells were collected for flow cytometry staining. Analyzed using a CANTO II flow cytometer with 488 nm excitation and emission filters appropriate for fluorescein (FITC) for Cell Trace CFSE. FIG. 4D) Effect of BCMA ADC on proliferation of CD4+ and CD8+ T cells. CD4+ and CD8+ T cells stimulated with anti-CD3 and anti-CD28 antibodies in the presence or absence of various concentrations of BCMA ADC. After 96 hours cell proliferation was analyzed by flow cytometry. Data represent mean±SD from 3 different donors.

With GSK2857916, in assay [1], the IFNγ production result is reported as “no significant effect” and the IL-4 production entry is given as “no significant effect”. Also, the IL-10 production entry in assay [2] (0.1, 1, 10 μg/mL BCMA ADC) is recorded as “significant inhibitory effect”. The IL-12p70 entry in assay [2] (all conditions) is “below the detection limit”. In assay [3], the “proliferation of CD4+ and CD8+ T cells” value is given as “does not appear to have direct effects”.
